# Results taken from patent publication US20250235501A1, “Methods and Compositions for Treating or Preventing Neurological Injury or Neurological Disorders” (University of Connecticut, priority 2024, published 2025).
# System: ERK and CREB activities (pERK1/2, pCREB)
# Assay: ERK and CREB activities in brains of mice subjected to MCAO (WB)
# Format: in vivo, mouse
# Conditions: WT mice; peptide ip 15 min before MCAO or sham
# Description: FIGS. 7I-7K show the effects of TAT-EE3 and Trpm2 deletion on ERK and CREB activities in mice subjected to MCAO. […] TAT-EE3 or TAT-SC was ip administrated to WT mice 15 min before MCAO or sham surgeries. FIGS. 7J and 7K show the quantification of pERK1/2 and pCREB expressed in the brains after MCAO or sham procedure (***, p<0.001; ANOVA, Bonferroni's test; mean±SEM, n=4/group).
# Eight-to nine-week-old male mice (˜25 g) were subjected to right middle cerebral artery occlusion (MCAO) for 120 min followed by 24 hours of reperfusion. The genotype information was blinded to the surgeon who conduct the surgeries. […] Mouse body temperature was monitored by a rectal temperature probe and maintained at ˜ 37° C. with an automatic temperature-regulating heating pad connected to animal temperature controller (TCA T-2DF, Physitemp). Cerebral blood flow was monitored after occlusion as well as after reperfusion. […] Successful occlusion was confirmed by 85% reduction of cerebral blood flow monitored by Laser Doppler Flowmetry (LDF) with laser Doppler blood FlowMeter (Moor-VMS-LDF1, Moor Instrument, Dever, UK). […]
# NP-40/Triton lysis buffer ([…], 1% Triton™ X-100, 150 mM NaCl, 1 mM EDTA, 50 mM Tris, pH=8.0) containing proteinase inhibitors and phosphatase inhibitors was used to lyse both cultured cells and frozen brain tissue. […] Protein concentration was measured using Pierce™ Rapid Gold BCA Protein Assay Kit. […]
substance,measurement,value
"TAT-EE3: membrane permeable disrupting peptide, sequence YGRKKRRQRRREEDTDSSEEMLALAEE (SEQ ID NO: 4)",pCREB level in MCAO brains vs sham control brains,no reduction
same,pERK1/2 level in MCAO brains vs sham control brains,no reduction
